A short description of data set [1]: Solubility limit noted in the cyst prevention assay. It counts as physicochemical.
Data set [2] deals with primary huADPKD cells. The data set is described as follows: Cyst attack cystogenesis bioassay, cyst image tracking. To be noted: 3 μM. It counts as cell-based, human. The method, then: Primary cells capable of 3D cystogenesis were seeded as described above for the cyst prevention cytogenesis bioassay. In the cyst attack assay, cysts were allowed to develop to 12-24 in number and allowed to expand to a significant size. Specific cysts or cyst clusters were marked in each well. A test compound was then added to attack the already formed cysts to determine effects on the cysts. […] The timing of addition of the compound, frequency of addition of the compound and concentration of the compound varied.
A prominent cyst was imaged before treatment and daily for 6 days after treatment began. This larger cyst increased by 2.5 to 3.0 fold in the presence of the industry standard drug, tolvaptan, a vasopressin receptor antagonist.

In data set [3] the test system is primary huADPKD cells. The experiment in a line: Cyst prevention cystogenesis bioassay, 3D biogel, 48-well, light microscopy. To be noted: for overt cell cytotoxicity: concentrations tested; for effect on cyst appearance and expansion: midway point and end of assay, various concentrations. The method, then:
Primary cells capable of 3D cystogenesis were seeded into a 3D biogel that is liquified before the gel sets. The gel set undisturbed within a humidified 5% CO2 incubator for 18 hours. An equal volume of DBM RenalCyte media was then overlaid in each well of a 48-well plate. “Add” feeds were performed until the well was full, and then half of the volume of media was removed and new media added at the same volume thereafter. […] In the cyst prevention assay, cysts were challenged as soon as they started to appear (small in dimension and few in number per well) with a test compound. The timing of addition of the test compound, frequency of addition of the test compound and concentration of the test compound varied. The effects on the cysts were followed by light-based microscopic imaging over time. In addition to visual inspection by light-based microscopic imaging occurring throughout the study, the number of cysts were counted per well at the end of the study and light-based endpoints were examined, such as 3D CellTiter-GLO® from Promega (Madison, Wis.) (to quantify viable cells), secretion (to quantify cell membrane integrity), and/or Caspase-GLO® (Promega) (to measure induction of apoptosis) in multiplex fashion. A modified version of this assay images after seeding the biogel each day for complete prevention of cyst formation versus counterpart controls over a 14 to 21-day period. Multiple replicates were performed, and cells from multiple donors were tested.

Data set [4] has as its system ADPKD cells. The data set is described as follows: AVP-stimulated cystogenesis, 384-well high-content imaging. Type of data set: cell-based, human. The conditions noted are these: 14 days culture in the presence of AVP versus absence. The method, then:
Whole well automated high-content imaging was performed of ADPKD primary cells seeded in 384-well plates using the BioTek Cytation 5 system. Multiple well were captured per treatment. Uniform images were fed into deep learning algorithms for analysis. Stimuli like cAMP agonists and growth factors were not required, as the DBM RenalCyte media was sufficient to drive cystogenesis, as shown in FIG. 14.

Data set [5] relates to ADPKD cell cultures. The data set is described as follows: Cyst prevention assay, 3D CellTiterGLO cell viability, CRC design. Type of data set: cell-based, human. The method, then:
In this assay, the ADPKD cell cultures were incubated on 4 days before 1 week of treatment with drugs, media only or DMSO only.
(In general: In ATP-based viability assays light output follows the ATP content of the culture.)

Data set [6] has as its system ADPKD cell cultures. The experiment in a line: Cyst reduction assay, 3D CellTiterGLO cell viability, CRC design. Type of data set: cell-based, human. An excerpt: Results are shown in FIG. 26 for a cyst reduction assay.
Data set [7] relates to Immortal Human ADPKD Cell Line. The data set is described as follows: TEER of cell monolayers pre- and post-amiloride. Type of data set: cell-based. The conditions noted are these: amiloride treatment. The method, then:
High-titer aliquots (10^9 pfu) of Lenti-SV40T, Lenti-hTERT-Neo and Lenti-CDK4 from Applied Biological Materials (ABM) (Richmond, BC, Canada) and Lenti-CDNK2 (Sigma-Aldrich) were diluted into transfection media to 10^7 pfu for cell challenge. In some cases, Lenti-hTERT and Lenti-CDK4 or Lenti-CDNK2 were combined as a newer immortalization method. huADPKD primary cultures were selected for immortalization based on a compelling genotype, an acceptable cell proliferation rate, and an ability to form cysts in 3D Matrigel culture. Mixed immortalized cultures were established by both methods from primary cultures where the lifetime of the cells were doubled from 5 passages (primary) to 10 passages (mixed immortal). The SV40T method was successful in generating immortal cell cultures that formed electrically tight polarized cell monolayers for transepithelial resistance (TEER) measurements and likely Ussing chamber-based electrophysiological recording of ion transport. These immortal human ADPKD cell monolayers may also be useful in fluid transport assays. Transepithelial/transendothelial electrical resistance (TEER) data for a new immortalized human ADPKD cell line are shown in Table 1 below.

In data set [8] the test system is primary human ADPKD cultures. The data set is described as follows: 384-well cyst attack assay, 3D CellTiterGLO cell viability. Type of data set: cell-based. The method, then:
(§1) A BioTek Cytation 5 (Biotek instruments, Winooski, Vt.) high content imaging and light-based high-throughput screening imaging system was used to image the huADPKD cells growing in 3D Biogels in 96-well and 384-well microliter plates. The Cytation 5 is coupled to a BioTek BioSpa 8 (a humidified CO2 incubator), such that trays can be extracted one at a time for analysis in the reader and then returned to the BioSpa.
(§2) Concentrations of 30-1000 nM were tested for each, and data were expressed as percent viability versus DMSO control (n=12). […] Statistical analysis was performed using ANOVA.

Data set [9] relates to primary huADPKD cells. The data set is described as follows: 384-well cyst prevention assay, percent viability versus DMSO control. It counts as cell-based, human. The method, then:
as §1
While no drivers are required, they can be used if desired. Edge wells are filled with saline to mitigate edge effects
Whole well automated high-content imaging was performed of ADPKD primary cells seeded in 384-well plates using the BioTek Cytation 5 system. Multiple well were captured per treatment. Uniform images were fed into deep learning algorithms for analysis.
as §2

The mark [10] stands for this setting: from complete loss of viability signal.
The mark [11] stands for this setting: incubated 4 days before 1 week of treatment.
[12] abbreviates: incubated 10 days before 1 week of treatment.

Values after ≈ are worked out from the molar mass of the structure shown.

For the compound `CO[C@H]1C[C@@H]2CC[C@@H](C)[C@@](O)(O2)C(=O)C(=O)N2CCCC[C@H]2C(=O)O[C@H]([C@H](C)C[C@@H]2CC[C@@H](O)[C@H](OC)C2)CC(=O)[C@H](C)/C=C(\C)[C@@H](O)[C@@H](OC)C(=O)[C@H](C)C[C@H](C)/C=C/C=C/C=C/1C` [rapamycin], the solubility in data set [1] is about 30 µM (≈ 27.4 µg/mL). In [2], the overt toxicity entry is “not overtly toxic”.
With `COc1cc(Nc2c(C#N)cnc3cc(OCCCN4CCN(C)CC4)c(OC)cc23)c(Cl)cc1Cl` [bosutinib], in data set [3], the overt cell cytotoxicity result was “no overt cell cytotoxicity”; the “effect on cyst appearance and expansion” value is “no effect”. Besides, in data set [2] (in 1-2 days), the “increase in size of a small cyst” value was found to be 2 fold.
As to `NC(=O)CC[C@@H]1NC(=O)[C@H](Cc2ccccc2)NC(=O)[C@H](Cc2ccc(O)cc2)NC(=O)[C@@H](N)CSSC[C@@H](C(=O)N2CCC[C@H]2C(=O)N[C@@H](CCCN=C(N)N)C(=O)NCC(N)=O)NC(=O)[C@H](CC(N)=O)NC1=O` [Arginine Vasopressin (AVP), Arginine Vasopressin], in data set [4], the cyst size result is “more larger on average”.
For `CC(C)(CO)c1cc2cc(NC(=O)C3(c4ccc5c(c4)OC(F)(F)O5)CC3)c(F)cc2n1C[C@@H](O)CO` [VX-661], the IC50 in data set [5] (Homo sapiens, incubated 4 days before 1 week of treatment) came to 10 µM; in data set [6] (Homo sapiens, incubated 10 days before 1 week of treatment), 30 µM. In addition, the cytotoxicity result in data set [5] (setting [10]) and in [6] (setting [10]) was “overt cytotoxicity” in each case. Besides, the “extent of inhibition, in words” value in [5] (setting [11]) and in data set [6] (setting [12]) was “complete inhibition to no signal” throughout.
Regarding `Cc1ccc(NC(=O)C2(c3ccc4c(c3)OC(F)(F)O4)CC2)nc1-c1cccc(C(=O)O)c1` [VX-809], the “extent of inhibition, in words” value is “only a partial effect and only at the highest concentration” in data set [5] (setting [11]); “only a partial effect and only at the highest concentrations” in data set [6] (setting [12]).
`N=C(N)NC(=O)c1nc(Cl)c(N)nc1N` [Amiloride, amiloride]: in data set [7], the “change of transepithelial resistance, in words” value was “increase in resistance”.
Consider `Cc1ccccc1C(=O)Nc1ccc(C(=O)N2CCCC(O)c3cc(Cl)ccc32)c(C)c1` (stereo not shown) [tolvaptan], for which the solubility in data set [1] is about 30 µM (≈ 13.5 µg/mL). The “extent of inhibition, in words” value in data set [6] (setting [12]) was “only a partial effect and only at the highest concentrations”. Besides, the cyst expansion entry in data set [3] (10 and 30 micromolar) is “may have slowed cyst expansion”. Moreover, the overt cell cytotoxicity result in [3] is “no overt cell cytotoxicity”. Also, the “effect on cyst appearance and expansion” value in data set [3] is given as “little effect”. Moreover, the inhibition at 10 µM in data set [8] (Homo sapiens, 10-fold higher concentration (10 μM), 2 weeks incubation, then 1-week treatment) is about 20%. For the same compound, the “efficacy, percent viability versus DMSO control” value in [8] (attack assay, 30-1000 nM) is listed as “ineffective”; in data set [9] (prevention assay, 30-1000 nM) it was “ineffective”. For the same compound, the concentration for half-maximal inhibition (IC50) in data set [9] (Homo sapiens, cyst prevention assays in 384-well plates, FIG. 24) was over 10 µM. Also, the “efficacy in cAMP stimulated assays” value in [9] (cAMP stimulated) was “only slightly more effective”. The “concentrations at which effective” value in [9] (cyst prevention assays, FIG. 23) is given as “only at mid-micromolar concentrations”. Also, in data set [2] (6 days), the “size of the smaller cyst” value is recorded as “quickly reduced in size”. Further, the “size of the large cyst” value in data set [2] (week-long treatment) is “doubled in size but then decreased in size to a slightly reduced size”.

The solubility is how much of the substance goes into solution per volume. A high value points to a readily soluble substance. The IC50 is the concentration at which inhibition is half-maximal. Low values mean higher potency, high ones lower potency. The inhibition is the relative decrease from the control value, in per cent.

The values above are taken from patent US20220235328A1, “HUMAN DISEASED AND NORMAL KIDNEY EPITHELIAL CELL CULTURES AND USES THEREOF” (DISCOVERYBIOMED, INC., priority 2019, published 2022).
